Values quoted from earlier work in publication PMC3229099 (Acta biochimica Polonica, 2011).

Tests used:
opioid δ receptors = settings: in vivo studies with the use of selective opioid receptor antagonists; ref Kotlińska et al, 2009
[1] = tested on: δ receptor versus μ receptor; settings: ref Pawlak et al, 1997

amide of cyclo[N^ε, N^δ -carbonyl-D-Lys^2, Dap^5 ]enkephalin
receptor type mediating antinociception in vivo (opioid δ receptors): induced antinociception predominantly through opioid δ receptors | GPI/MVD ratio [1]: 0.33
